Laboratory results as given in ChEMBL document CHEMBL3991601, “The target landscape of clinical kinase drugs” (Science, 2017).
The source made the active and inactive calls. Cut-off read from the data, not from the text of the source, for most assays here: actives have a measured Kd and inactives only a lower limit.

Assays:
[1] = target: Mitogen-activated protein kinase 8 (Homo sapiens, UniProt P45983)
[2] = target: T1, NUAK family SNF1-like kinase 2 (Homo sapiens, UniProt Q9H093)
T1 sequence (Q9H093 whole entry): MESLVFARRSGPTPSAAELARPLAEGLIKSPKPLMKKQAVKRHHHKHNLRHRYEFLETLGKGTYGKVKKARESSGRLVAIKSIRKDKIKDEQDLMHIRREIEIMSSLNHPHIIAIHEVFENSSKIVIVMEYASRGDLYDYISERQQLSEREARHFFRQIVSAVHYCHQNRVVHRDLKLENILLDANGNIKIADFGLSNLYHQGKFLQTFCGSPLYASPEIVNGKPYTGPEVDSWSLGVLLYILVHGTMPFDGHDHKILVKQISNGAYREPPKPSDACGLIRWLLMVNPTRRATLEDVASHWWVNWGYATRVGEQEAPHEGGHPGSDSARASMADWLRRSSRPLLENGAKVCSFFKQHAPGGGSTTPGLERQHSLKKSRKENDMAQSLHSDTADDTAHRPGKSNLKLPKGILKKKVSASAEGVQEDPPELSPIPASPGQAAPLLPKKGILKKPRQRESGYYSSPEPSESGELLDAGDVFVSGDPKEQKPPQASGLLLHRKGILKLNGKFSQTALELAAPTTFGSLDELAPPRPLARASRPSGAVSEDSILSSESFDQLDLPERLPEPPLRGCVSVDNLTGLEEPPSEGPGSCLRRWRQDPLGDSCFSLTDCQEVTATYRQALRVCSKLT

[3] = target: BMP-2-inducible protein kinase (Homo sapiens, UniProt Q9NSY1)
[4] = target: Serine/threonine-protein kinase MRCK gamma (Homo sapiens, UniProt Q6DT37)
ADP/ATP translocase 3 = target: T2, ADP/ATP translocase 3 (Homo sapiens, UniProt P12236)
T2 sequence (P12236 whole entry): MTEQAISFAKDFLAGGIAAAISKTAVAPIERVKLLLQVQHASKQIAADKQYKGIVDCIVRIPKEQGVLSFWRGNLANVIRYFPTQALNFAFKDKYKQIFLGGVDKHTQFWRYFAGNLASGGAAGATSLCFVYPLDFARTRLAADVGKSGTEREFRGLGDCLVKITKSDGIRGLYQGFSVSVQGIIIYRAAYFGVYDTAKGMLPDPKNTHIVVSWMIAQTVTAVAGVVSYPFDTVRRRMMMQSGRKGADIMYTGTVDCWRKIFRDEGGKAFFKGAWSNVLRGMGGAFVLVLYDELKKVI

[5] = target: Mitogen-activated protein kinase 11 (Homo sapiens, UniProt Q15759)
Adenosine kinase = Adenosine kinase (Homo sapiens, UniProt P55263)
[6] = target: Ribosomal protein S6 kinase alpha-1 (Homo sapiens, UniProt Q15418)
[7] = target: Tyrosine-protein kinase Fyn (Homo sapiens, UniProt P06241)
[8] = target: Tyrosine-protein kinase Fer (Homo sapiens, UniProt P16591)
[9] = target: T3, Mitogen-activated protein kinase kinase kinase kinase 3 (Homo sapiens, UniProt Q8IVH8)
T3 sequence (Q8IVH8 whole entry): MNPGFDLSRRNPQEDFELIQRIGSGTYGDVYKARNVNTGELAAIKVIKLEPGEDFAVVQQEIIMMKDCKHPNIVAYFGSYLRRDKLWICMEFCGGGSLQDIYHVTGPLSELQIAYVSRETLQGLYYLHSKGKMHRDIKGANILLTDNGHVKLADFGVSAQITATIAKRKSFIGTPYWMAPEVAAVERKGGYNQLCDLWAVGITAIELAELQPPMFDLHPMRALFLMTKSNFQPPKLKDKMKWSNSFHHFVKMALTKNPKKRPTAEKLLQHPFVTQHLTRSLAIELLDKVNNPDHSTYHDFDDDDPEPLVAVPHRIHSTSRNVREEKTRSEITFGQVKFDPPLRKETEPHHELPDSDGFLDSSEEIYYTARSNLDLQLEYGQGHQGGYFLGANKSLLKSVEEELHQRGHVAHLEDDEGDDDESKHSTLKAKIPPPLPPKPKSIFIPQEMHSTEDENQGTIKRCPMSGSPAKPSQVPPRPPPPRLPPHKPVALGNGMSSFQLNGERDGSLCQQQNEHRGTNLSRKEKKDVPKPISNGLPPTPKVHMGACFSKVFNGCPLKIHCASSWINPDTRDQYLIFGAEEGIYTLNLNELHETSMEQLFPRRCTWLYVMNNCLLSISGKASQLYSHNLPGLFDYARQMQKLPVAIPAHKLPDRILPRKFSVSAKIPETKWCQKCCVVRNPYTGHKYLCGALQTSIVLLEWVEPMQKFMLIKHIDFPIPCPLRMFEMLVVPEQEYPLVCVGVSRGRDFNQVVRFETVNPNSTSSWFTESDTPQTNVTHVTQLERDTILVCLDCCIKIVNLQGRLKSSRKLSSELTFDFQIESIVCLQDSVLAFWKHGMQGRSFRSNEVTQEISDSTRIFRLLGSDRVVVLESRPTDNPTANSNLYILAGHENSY

[10] = target: Serine/threonine-protein kinase SIK3 (Homo sapiens, UniProt Q9Y2K2)
LIM domain kinase 1 = LIM domain kinase 1 (Homo sapiens, UniProt P53667)
[11] = target: T4, Adenine phosphoribosyltransferase (Homo sapiens, UniProt P07741)
T4 sequence (P07741 whole entry): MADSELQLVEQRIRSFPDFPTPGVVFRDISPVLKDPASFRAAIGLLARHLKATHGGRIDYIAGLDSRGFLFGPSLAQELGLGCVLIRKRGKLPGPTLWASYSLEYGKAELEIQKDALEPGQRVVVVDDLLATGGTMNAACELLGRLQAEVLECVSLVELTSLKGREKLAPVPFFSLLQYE

[12] = target: Inosine-5'-monophosphate dehydrogenase 2 (Homo sapiens, UniProt P12268)
Note: in the data inactive means no Kd found up to 30 µM.

Mitogen-activated protein kinase 8, sequence (P45983 whole entry): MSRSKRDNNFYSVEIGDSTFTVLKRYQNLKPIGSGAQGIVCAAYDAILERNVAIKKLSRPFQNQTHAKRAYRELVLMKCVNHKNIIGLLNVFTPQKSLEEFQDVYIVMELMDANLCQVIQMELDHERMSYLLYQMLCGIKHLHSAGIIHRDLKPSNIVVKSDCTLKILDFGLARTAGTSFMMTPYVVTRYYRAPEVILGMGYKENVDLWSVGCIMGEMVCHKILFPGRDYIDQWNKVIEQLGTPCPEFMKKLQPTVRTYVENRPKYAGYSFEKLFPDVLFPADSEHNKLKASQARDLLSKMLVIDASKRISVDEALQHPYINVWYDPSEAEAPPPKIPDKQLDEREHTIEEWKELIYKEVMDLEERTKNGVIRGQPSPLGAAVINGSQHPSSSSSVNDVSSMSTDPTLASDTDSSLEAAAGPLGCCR
Ribosomal protein S6 kinase alpha-1, sequence (Q15418 whole entry): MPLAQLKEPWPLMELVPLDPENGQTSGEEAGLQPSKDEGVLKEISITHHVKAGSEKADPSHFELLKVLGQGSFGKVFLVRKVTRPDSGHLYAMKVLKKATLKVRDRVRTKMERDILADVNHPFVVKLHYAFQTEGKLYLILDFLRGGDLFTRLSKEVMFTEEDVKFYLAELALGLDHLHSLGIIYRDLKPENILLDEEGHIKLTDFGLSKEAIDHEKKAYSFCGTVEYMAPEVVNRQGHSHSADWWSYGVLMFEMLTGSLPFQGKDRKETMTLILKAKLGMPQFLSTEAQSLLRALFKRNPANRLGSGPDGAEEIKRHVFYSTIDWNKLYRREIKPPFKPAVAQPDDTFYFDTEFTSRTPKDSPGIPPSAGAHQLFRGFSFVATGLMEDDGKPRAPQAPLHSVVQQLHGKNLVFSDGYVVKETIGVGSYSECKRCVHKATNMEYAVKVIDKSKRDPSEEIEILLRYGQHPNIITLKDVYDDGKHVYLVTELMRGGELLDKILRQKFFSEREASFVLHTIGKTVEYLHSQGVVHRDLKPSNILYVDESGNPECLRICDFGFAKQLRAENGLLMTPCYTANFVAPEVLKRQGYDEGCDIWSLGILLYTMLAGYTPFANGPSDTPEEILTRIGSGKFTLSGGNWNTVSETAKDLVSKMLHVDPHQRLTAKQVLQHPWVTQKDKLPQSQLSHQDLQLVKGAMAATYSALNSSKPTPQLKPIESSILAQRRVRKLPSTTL
Serine/threonine-protein kinase SIK3, sequence (Q9Y2K2 whole entry, the tested form may be a part): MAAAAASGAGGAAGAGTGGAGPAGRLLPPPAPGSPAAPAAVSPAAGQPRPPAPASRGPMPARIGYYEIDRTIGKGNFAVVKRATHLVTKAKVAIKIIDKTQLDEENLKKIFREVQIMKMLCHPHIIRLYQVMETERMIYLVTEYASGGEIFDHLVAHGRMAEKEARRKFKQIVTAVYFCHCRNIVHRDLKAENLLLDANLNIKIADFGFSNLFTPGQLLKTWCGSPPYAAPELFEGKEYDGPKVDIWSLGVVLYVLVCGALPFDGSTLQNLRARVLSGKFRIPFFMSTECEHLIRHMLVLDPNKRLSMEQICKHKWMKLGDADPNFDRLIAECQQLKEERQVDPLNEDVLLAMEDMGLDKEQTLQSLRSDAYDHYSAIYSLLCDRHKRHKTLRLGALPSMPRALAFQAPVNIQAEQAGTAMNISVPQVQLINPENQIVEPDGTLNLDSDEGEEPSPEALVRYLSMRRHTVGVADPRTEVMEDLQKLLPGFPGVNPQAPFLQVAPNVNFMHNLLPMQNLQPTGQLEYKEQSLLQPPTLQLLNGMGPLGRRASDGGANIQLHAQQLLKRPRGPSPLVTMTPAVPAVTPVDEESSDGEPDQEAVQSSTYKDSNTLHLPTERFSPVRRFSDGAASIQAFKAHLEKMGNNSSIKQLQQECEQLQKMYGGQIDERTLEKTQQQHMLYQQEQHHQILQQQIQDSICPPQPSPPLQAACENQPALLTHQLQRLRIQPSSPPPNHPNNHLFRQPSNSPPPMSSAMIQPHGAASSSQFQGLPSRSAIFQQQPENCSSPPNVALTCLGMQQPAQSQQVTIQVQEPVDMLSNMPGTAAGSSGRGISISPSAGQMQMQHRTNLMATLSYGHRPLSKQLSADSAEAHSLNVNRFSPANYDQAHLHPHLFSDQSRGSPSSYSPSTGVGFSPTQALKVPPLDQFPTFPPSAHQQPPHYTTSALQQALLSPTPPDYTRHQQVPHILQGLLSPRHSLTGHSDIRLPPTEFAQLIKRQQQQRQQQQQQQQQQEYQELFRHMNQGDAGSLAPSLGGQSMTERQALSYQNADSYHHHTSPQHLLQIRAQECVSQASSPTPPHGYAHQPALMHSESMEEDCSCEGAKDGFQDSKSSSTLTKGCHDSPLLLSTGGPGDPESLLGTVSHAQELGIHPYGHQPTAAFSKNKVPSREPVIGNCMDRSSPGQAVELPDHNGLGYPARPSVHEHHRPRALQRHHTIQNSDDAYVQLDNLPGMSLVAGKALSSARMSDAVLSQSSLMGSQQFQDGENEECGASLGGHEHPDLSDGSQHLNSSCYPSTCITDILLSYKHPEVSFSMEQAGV
Serine/threonine-protein kinase MRCK gamma, sequence (Q6DT37 whole entry): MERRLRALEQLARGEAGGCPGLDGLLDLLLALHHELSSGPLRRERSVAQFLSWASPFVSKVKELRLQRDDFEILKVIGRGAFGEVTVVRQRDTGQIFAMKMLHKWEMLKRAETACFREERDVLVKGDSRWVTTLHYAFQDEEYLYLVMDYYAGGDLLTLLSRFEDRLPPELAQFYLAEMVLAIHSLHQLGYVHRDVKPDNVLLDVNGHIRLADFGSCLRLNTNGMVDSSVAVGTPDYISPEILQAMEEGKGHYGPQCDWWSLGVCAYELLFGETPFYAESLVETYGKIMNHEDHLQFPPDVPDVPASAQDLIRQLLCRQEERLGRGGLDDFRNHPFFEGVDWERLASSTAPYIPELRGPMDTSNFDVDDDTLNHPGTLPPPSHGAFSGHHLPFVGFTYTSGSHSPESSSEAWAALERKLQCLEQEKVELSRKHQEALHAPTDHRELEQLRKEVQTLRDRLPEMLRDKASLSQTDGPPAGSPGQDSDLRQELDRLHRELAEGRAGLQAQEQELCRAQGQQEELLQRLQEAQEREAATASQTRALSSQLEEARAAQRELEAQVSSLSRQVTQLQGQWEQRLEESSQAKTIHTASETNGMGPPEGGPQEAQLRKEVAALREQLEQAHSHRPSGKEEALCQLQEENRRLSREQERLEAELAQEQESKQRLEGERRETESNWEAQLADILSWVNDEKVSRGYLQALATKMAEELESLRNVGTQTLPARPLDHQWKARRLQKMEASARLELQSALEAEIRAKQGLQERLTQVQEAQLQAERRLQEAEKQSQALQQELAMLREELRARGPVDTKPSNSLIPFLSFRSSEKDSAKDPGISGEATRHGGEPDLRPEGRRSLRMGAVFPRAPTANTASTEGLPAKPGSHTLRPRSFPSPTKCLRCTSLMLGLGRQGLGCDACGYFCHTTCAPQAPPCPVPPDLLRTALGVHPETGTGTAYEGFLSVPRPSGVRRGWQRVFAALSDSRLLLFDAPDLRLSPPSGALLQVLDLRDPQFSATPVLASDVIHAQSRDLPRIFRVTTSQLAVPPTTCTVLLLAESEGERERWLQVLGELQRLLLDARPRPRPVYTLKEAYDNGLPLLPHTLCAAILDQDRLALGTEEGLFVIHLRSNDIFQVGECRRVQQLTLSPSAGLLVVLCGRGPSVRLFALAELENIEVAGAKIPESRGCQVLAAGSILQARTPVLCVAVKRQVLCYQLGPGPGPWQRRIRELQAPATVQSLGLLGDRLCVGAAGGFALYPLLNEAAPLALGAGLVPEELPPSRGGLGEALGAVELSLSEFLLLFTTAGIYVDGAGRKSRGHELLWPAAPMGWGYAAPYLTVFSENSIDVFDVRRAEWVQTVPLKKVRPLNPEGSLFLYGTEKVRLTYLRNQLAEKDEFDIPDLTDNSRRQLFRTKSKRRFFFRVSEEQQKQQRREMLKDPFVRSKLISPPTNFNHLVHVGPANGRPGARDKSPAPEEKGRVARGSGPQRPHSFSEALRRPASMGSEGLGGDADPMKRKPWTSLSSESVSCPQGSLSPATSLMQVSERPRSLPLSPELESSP
Tyrosine-protein kinase Fyn, sequence (P06241 whole entry): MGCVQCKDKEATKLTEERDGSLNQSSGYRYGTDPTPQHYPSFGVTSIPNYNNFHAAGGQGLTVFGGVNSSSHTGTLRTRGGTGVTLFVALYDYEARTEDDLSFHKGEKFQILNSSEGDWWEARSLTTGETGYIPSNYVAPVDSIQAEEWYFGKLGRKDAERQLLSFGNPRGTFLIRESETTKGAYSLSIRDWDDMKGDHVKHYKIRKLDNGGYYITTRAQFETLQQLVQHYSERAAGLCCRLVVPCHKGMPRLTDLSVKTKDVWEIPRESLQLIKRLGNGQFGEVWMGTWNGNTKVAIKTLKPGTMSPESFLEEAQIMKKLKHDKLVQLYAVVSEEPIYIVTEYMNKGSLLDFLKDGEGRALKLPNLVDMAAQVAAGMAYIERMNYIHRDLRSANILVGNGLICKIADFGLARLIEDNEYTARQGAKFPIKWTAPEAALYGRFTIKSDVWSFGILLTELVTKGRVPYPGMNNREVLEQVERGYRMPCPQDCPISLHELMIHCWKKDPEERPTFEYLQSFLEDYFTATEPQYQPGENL
Mitogen-activated protein kinase 11, sequence (Q15759 whole entry): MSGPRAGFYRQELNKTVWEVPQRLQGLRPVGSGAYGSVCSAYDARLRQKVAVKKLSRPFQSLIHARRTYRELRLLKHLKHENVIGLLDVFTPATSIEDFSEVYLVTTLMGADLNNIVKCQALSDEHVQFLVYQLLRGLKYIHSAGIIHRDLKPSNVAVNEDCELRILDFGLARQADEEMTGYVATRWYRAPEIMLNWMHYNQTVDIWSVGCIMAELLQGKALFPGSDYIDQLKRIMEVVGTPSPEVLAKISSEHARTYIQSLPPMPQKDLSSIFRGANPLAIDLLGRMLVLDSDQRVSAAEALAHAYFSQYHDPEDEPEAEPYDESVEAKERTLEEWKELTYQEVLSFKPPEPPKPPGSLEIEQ

Row | Kd [1] | Kd [2] | Kd [3] | Kd [4] | Kd (ADP/ATP translocase 3) | Kd [5] | Kd (Adenosine kinase) | Kd [6] | Kd [7] | Kd [8] | Kd [9] | Kd [10] | Kd (LIM domain kinase 1) | Kd [11] | Kd [12] | SMILES
1 | > 30 µM (inactive) | > 30 µM (inactive) | 1.71 µM (active) |  | > 30 µM (inactive) | > 30 µM (inactive) | > 30 µM (inactive) | > 30 µM (inactive) | 0.583 µM (active) | > 30 µM (inactive) | > 30 µM (inactive) | > 30 µM (inactive) | > 30 µM (inactive) | > 30 µM (inactive) | > 30 µM (inactive) | COc1cccc(Nc2ncnn3ccc(CN4CC[C@@H](N)[C@H](O)C4)c23)c1 [BMS-690514]
2 | > 30 µM (inactive) |  | > 30 µM (inactive) | > 30 µM (inactive) | > 30 µM (inactive) | > 30 µM (inactive) | > 30 µM (inactive) | > 30 µM (inactive) | > 30 µM (inactive) | > 30 µM (inactive) | > 30 µM (inactive) | > 30 µM (inactive) | > 30 µM (inactive) |  |  | Cc1cc(-c2cc(OC(=O)c3ccccc3)ccc2Cl)cc2nnc(Nc3ccc(OCCN4CCCC4)cc3)nc12 [TG100-801]
3 | 3.76 µM (active) | > 30 µM (inactive) | 56 µM (active) | > 30 µM (inactive) | > 30 µM (inactive) | > 30 µM (inactive) | > 30 µM (inactive) | > 30 µM (inactive) | > 30 µM (inactive) | > 30 µM (inactive) | > 30 µM (inactive) | > 30 µM (inactive) | > 30 µM (inactive) |  | > 30 µM (inactive) | CCN1CCN(Cc2ccc(Nc3ncc(F)c(-c4cc(F)c5nc(C)n(C(C)C)c5c4)n3)nc2)CC1 [ABEMACICLIB]
4 | > 30 µM (inactive) | > 30 µM (inactive) | > 30 µM (inactive) | > 30 µM (inactive) | > 30 µM (inactive) | > 30 µM (inactive) | > 30 µM (inactive) | > 30 µM (inactive) | > 30 µM (inactive) | > 30 µM (inactive) | > 30 µM (inactive) | > 30 µM (inactive) | > 30 µM (inactive) |  | > 30 µM (inactive) | FC(F)(F)c1ccc(CNc2ccc(Cc3c[nH]c4ncc(Cl)cc34)cn2)cn1 [PEXIDARTINIB]
5 | > 30 µM (inactive) | > 30 µM (inactive) | > 30 µM (inactive) | > 30 µM (inactive) | > 30 µM (inactive) | > 30 µM (inactive) | > 30 µM (inactive) | > 30 µM (inactive) | > 30 µM (inactive) | > 30 µM (inactive) | > 30 µM (inactive) | > 30 µM (inactive) | > 30 µM (inactive) |  | > 30 µM (inactive) | O=c1[nH]c([C@@H]2CCCN2)nc2c1oc1ccc(Cl)cc12
6 | > 30 µM (inactive) | > 30 µM (inactive) | 10.9 µM (active) | > 30 µM (inactive) | > 30 µM (inactive) | > 30 µM (inactive) |  | > 30 µM (inactive) | > 30 µM (inactive) | > 30 µM (inactive) | > 30 µM (inactive) | > 30 µM (inactive) | > 30 µM (inactive) |  | > 30 µM (inactive) | Cc1cc(C(=O)Nc2cc(Oc3ccc4nc(NC(=O)C5CC5)cn4n3)ccc2C)n(C)n1 [TAK-593]
7 | > 30 µM (inactive) | > 30 µM (inactive) | > 30 µM (inactive) | > 30 µM (inactive) | > 30 µM (inactive) | > 30 µM (inactive) | > 30 µM (inactive) | > 30 µM (inactive) | > 30 µM (inactive) | > 30 µM (inactive) | > 30 µM (inactive) | > 30 µM (inactive) | > 30 µM (inactive) | > 30 µM (inactive) | > 30 µM (inactive) | C[C@@H]1COC(Nc2ccc3ncnc(Nc4ccc(OCc5nccs5)c(Cl)c4)c3c2)=N1 [VARLITINIB]
8 | > 30 µM (inactive) | > 30 µM (inactive) | > 30 µM (inactive) | > 30 µM (inactive) | > 30 µM (inactive) | > 30 µM (inactive) | > 30 µM (inactive) | > 30 µM (inactive) | > 30 µM (inactive) | > 30 µM (inactive) | > 30 µM (inactive) | > 30 µM (inactive) | > 30 µM (inactive) |  | > 30 µM (inactive) | CC(C)(O)CC(=O)NCCn1ccc2ncnc(Nc3ccc(Oc4cccc(C(F)(F)F)c4)c(Cl)c3)c21 [TAK-285]

Row | SMILES | Kd [1] | Kd [2] | Kd [3] | Kd [4] | Kd (ADP/ATP translocase 3) | Kd [5] | Kd (Adenosine kinase) | Kd [6] | Kd [7] | Kd [8] | Kd [9] | Kd [10] | Kd (LIM domain kinase 1) | Kd [11] | Kd [12]
9 | CN1CCN(c2nc(C3=C(c4c[nH]c5ccccc45)C(=O)NC3=O)c3ccccc3n2)CC1 [SOTRASTAURIN] | > 30 µM (inactive) | > 30 µM (inactive) | > 30 µM (inactive) | > 30 µM (inactive) | > 30 µM (inactive) | > 30 µM (inactive) | > 30 µM (inactive) | > 30 µM (inactive) | > 30 µM (inactive) | > 30 µM (inactive) | > 30 µM (inactive) | > 30 µM (inactive) | > 30 µM (inactive) |  | 
10 | CNC(=O)c1ccc(Nc2ncc(C(F)(F)F)c(NCc3nccnc3N(C)S(C)(=O)=O)n2)cc1 [DEFACTINIB] | > 30 µM (inactive) | 0.454 µM | > 30 µM (inactive) | > 30 µM (inactive) | > 30 µM (inactive) | > 30 µM (inactive) |  | > 30 µM (inactive) | > 30 µM (inactive) | 1.3 µM (active) | > 30 µM (inactive) | > 30 µM (inactive) | > 30 µM (inactive) | > 30 µM (inactive) | 
11 | C=CCN(/C=C1/C(=O)O[C@H](COC)[C@@]2(C)C1=C(O)C(=O)C1=C2[C@H](OC(C)=O)C[C@]2(C)C(=O)CC[C@@H]12)CC=C [SONOLISIB] | > 30 µM (inactive) | > 30 µM (inactive) | > 30 µM (inactive) |  | > 30 µM (inactive) | > 30 µM (inactive) | > 30 µM (inactive) | > 30 µM (inactive) | > 30 µM (inactive) | > 30 µM (inactive) | > 30 µM (inactive) | 0.011 µM | > 30 µM (inactive) |  | 
